Assay [1] relates to brown stink bug (Euschistus heros). In words: Field trial on soybean plots against brown stink bug, kill efficiency of the nymphs. It counts as in vivo. Conditions: nymphs on soybean cv. BRS232, 14 days after spray treatment; application rate g a.i./ha: imidacloprid 72, (I-2) 24, mixture 72 + 24, methamidophos 480; tank mix with 0.1% a.i. methylated soya oil. The text has this:
(§1) The expected activity for a given combination of two active substances can be calculated as described by S. R. Colby, Weeds 15 (1967), 20-22, as follows:
(§2) If the actual insecticidal kill efficiency is greater than calculated, then the combination is superadditive in its kill efficiency, i.e. a synergistic effect is present. In this case, the kill efficiency actually observed must be greater than the value for the expected kill efficiency (E) calculated with the abovementioned formula.
(§3) After the desired period of time, the kill efficiency is determined in %. Here, 100% means that all animals have been killed; 0% means that no animals have been killed.
Methamidophos (SL 600) was tested concomitantly as commercially available standard. The water application rate is 200 l/ha.

The subject of assay [2] is red-banded stink bug (Piezodorus guildinii). In words: Caged soybean plot trial against red-banded stink bug, kill efficiency of the adults. Type of assay: in vivo. Conditions: application rate g a.i./ha: imidacloprid 70, (I-2) 24, mixture 72 + 24, methamidophos 480, tank mix with 0.1% a.i. methylated soya oil; for Kill efficiency as calculated by Abbott (%) 1 d: adults on soybean cv. CO-32, 1 day after spray treatment; for Kill efficiency as calculated by Abbott (%) 3 d: adults on soybean cv. CO-32, 3 days after spray treatment.
Text: as §1, §2, §3
Plots approximately 1 m^2 in size, provided with cages and planted with soybean plants (Glycine max) cv. “CO-32” are treated in four replications against the red-banded stink bug (Piezodorus guildinii) using a pneumatically operated backpack sprayer. A mixture of the active substance (I-2) and imidacloprid (SC 480) is applied in comparison with the active substance (I-2) (SC 240) on its own and imidacloprid (SC 200) on its own at the application rates specified, as a tank mix with 0.1% a.i. methylated soya oil (EC 850). Methamidophos (SL 600) was tested concomitantly as commercially available standard. The water application rate is 300 l/ha. The evaluation is performed 1 and 3 days after the treatment by determining the kill efficiency of the adults.

SMILES strings stand for the structures.

The source of these data is patent US8691863B2, “Use of active substance combinations having insecticidal properties for controlling animal pests from the stink bug family” (Bayer CropScience AG, priority 2007, dated 2014).

As for `O=[N+]([O-])/N=C1\NCCN1Cc1ccc(Cl)nc1` [Imidacloprid, imidacloprid], in assay [1], the “Kill efficiency as calculated by Abbott (%) 14 d” value is recorded as 21%. In assay [2], the “Kill efficiency as calculated by Abbott (%) 1 d” value is 65% and the “Kill efficiency as calculated by Abbott (%) 3 d” value is 65%.

For `COP(N)(=O)SC` (stereo not drawn) [Methamidophos], the “Kill efficiency as calculated by Abbott (%) 14 d” value in assay [1] is on record as 27%. In assay [2], the “Kill efficiency as calculated by Abbott (%) 1 d” value is recorded as 52.5% and the “Kill efficiency as calculated by Abbott (%) 3 d” value is 87.5%.
